Laboratory results published in patent US10752640B2, “Compounds active towards bromodomains” (NUEVOLUTION A/S, priority 2014, dated 2020).
pIC50: −log10 of the molar value.

Columns and labels:
[1] = biological target: T1, BRD4(2), second bromodomain of BRD4 (Homo sapiens, UniProt O60885); experiment: Bromoscan assay BRD4(2) (DiscoveRx); assay type: binding; conditions: read-out: BromoScan BRD4_2 Kd/nM
T1 construct: BRD4(2) for the second bromodomain of BRD4; purchased DiscoveRx Corporation (assay service); host or cells: T7 phage grown in an E. coli host derived from the BL21 strain
Method: (§1) Bromoscan assays were run by DiscoveRx Corporation. The relevant assay names are BRD4(1) for the first bromodomain of BRD4 and BRD4(2) for the second bromodomain of BRD4. Further Bromoscan assays covering other bromodomains could be employed to establish the selectivity profile of a compound of interest. To run the Bromoscan assay, a T7 phage strain displaying the relevant bromodomain was grown in parallel in 24-well blocks in an E. coli host derived from the BL21 strain. E. coli were grown to log-phase and infected with T7 phage from a frozen stock (multiplicity of infection=0.4) and incubated with shaking at 32° C. until lysis (90-150 minutes). The lysates were centrifuged (5,000×g) and filtered (0.2 μm) to remove cell debris. Streptavidin-coated magnetic beads were treated with biotinylated small molecule or acetylated peptide ligands for 30 minutes at room temperature to generate affinity resins for bromodomain assays. The liganded beads were blocked with excess biotin and washed with blocking buffer (SeaBlock (Pierce), 1% BSA (bovine serum albumin), 0.05% Tween 20, 1 mM DTT (dithiothreitol)) to remove unbound ligand and to reduce non-specific phage binding. Binding reactions were assembled by combining bromodomains, liganded affinity beads, and test compounds in 1× binding buffer (17% SeaBlock, 0.33×PBS, 0.04% Tween 20, 0.02% BSA, 0.004% Sodium azide, 7.4 mM DTT). Test compounds were prepared as 1000× stocks in 100% DMSO and subsequently diluted 1:10 in monoethylene glycol (MEG) to create stocks at 100× the screening concentration (resulting stock solution is 10% DMSO/90% MEG). The compounds were then diluted directly into the assays such that the final concentration of DMSO and MEG were 0.1% and 0.9%, respectively. All reactions were performed in polystyrene 96-well plates in a final volume of 0.135 ml. The assay plates were incubated at room temperature with shaking for 1 hour and the affinity beads were washed with wash buffer (1×PBS, 0.05% Tween 20). The beads were then re-suspended in elution buffer (lx PBS, 0.05% Tween 20, 2 μM nonbiotinylated affinity ligand) and incubated at room temperature with shaking for 30 minutes. The bromodomain concentration in the eluates was measured by qPCR (quantitative real-time polymerase chain reaction).

BRD4 protein = BRD4 protein (Homo sapiens, UniProt O60885); experiment: FRET assay, half maximal inhibitory concentration (IC50); assay type: binding; conditions: BRD4 protein 50 nM, Biotin-H4KAc4 peptide 12.5 nM
In short: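 Acetylated histone H4 peptide binding (biotin-H4KAc4, 12.5 nM final) to BRD4 (50 nM final) detected by TR-FRET between streptavidin cryptate (2.4 nM) and GST-XL665 antibody (10 nM) in KF/BSA. Buffer: HEPES pH 7.5, NaCl, CHAPS. Compound dilutions from 50 μM in 12.5% DMSO were preincubated with protein for 30 min. Variable-slope IC50.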

[2] = biological target: T2, BRD4(1), first bromodomain of BRD4 (Homo sapiens, UniProt O60885); experiment: Bromoscan assay BRD4(1) (DiscoveRx); assay type: binding; conditions: for Kd: first bromodomain of BRD4, read-out: BromoScan BRD4_1 Kd/nM; for BromoScan BRD4_2/1: ratio of Kd BRD4_2 to BRD4_1, selectivity for BRD4_1 over BRD4_2
T2 construct: BRD4(1) for the first bromodomain of BRD4; purchased DiscoveRx Corporation (assay service); host or cells: T7 phage grown in an E. coli host derived from the BL21 strain
Method: as §1

MV-4-11 tumor cells = experiment: Cell viability assay (CellTiter-Glo); assay type: cell-based; conditions: Homo sapiens, MV4-11; MV-4-11 cells, 72 hours with compound
Method: Grow MV-4-11 tumor cells (ATCC CRL-9591) in suspension at 37° C. in a humidified atmosphere (5% CO2, 95% air, IMDM (Iscove's Modified Dulbecco's Medium) medium supplemented with 10% FBS (fetal bovine serum)) Seed cells at a density of 10.000 cells per well of a flat-bottomed 96 well plate in 50 μL of medium. After 24 hours, add 50 μL of test compound or DMSO control from a pre-generated compound dilution series in medium. After an additional 72 hours, add 100 μL of pre-mixed CellTiter-Glo reagent (Promega G7570) to each well, shake for two minutes to allow cell lysis followed by 10 minutes of incubation at room temperature without shaking. Read luminescence on an Envision reader (Perkin Elmer). The inhibition of cell viability (IC) can be expressed as follows:
[formula] IC data can be analyzed using GraphPad Prism, and IC50 data can be obtained using non-linear regression curve fit using log(compound) vs response (variable slope). The effect of compound on the viability of other cell lines can be assayed under similar conditions, taking into account the growth requirement of the individual cell line.

IL-12p40 = experiment: Cytokine release inhibition assay: LPS-induced cytokine release from human PBMCs; assay type: cell-based; conditions: PBMC, LPS 1 ng/mL, 18 h, read-out: LPS IC50 IL12p40 μM
Method: Cytokine release inhibition assay: LPS-induced cytokine release from human peripheral blood mononuclear cells (PBMCs)
200,000 PBMCs were seeded per well of a 96-well plate in 160 μL of medium. Afterwards, 20 μL of ten times concentrated working dilutions of compound or DMSO control were added per well. Cells were pre-incubated with compounds for 1 h at 37° C., 5% CO2, 95% humidity and 20 μL of ten times concentrated LPS was added to cells (Sigma L4391, final concentration 1 ng/mL). Following 18 h incubation at 37° C., 5% CO2, 95% humidity, plates were centrifuged for 10 minutes at 300×g. 150 μL of supernatants were collected for IL-12p40 determination. The concentration of IL-12p40 in supernatants was determined by sandwich ELISA (enzyme-linked immunosorbent assay) using capture and detection antibodies according to the manufacturer's instructions (R&D Systems DY1240). Data can be analyzed using GraphPad Prism, and IC50 data can be obtained using non-linear regression curve fit using log(compound) vs response (variable slope).

[3] = A Further List of Classification

Structure (SMILES)	Kd [1] [nM]	pIC50 (BRD4 protein; List of Classification)	Kd [2] [nM]	BromoScan BRD4_2/1 [2]	pIC50 (MV-4-11 tumor cells)	pIC50 (IL-12p40)	pIC50 (BRD4 protein; [3])
Cc1cc(O)nc2ccc(NC(=O)c3cc(C4(N5CCOCC5)CC4)ccc3N3CCCC3)cc12 [Compound-113, N-(4-methyl-2-oxo-1,2-dihydroquinolin-6-yl)-5-(1-morpholinocyclopropyl)-2-(pyrrolidin-1-yl)benzamide]	190	> 6.70	16	11.9	6.22	–	–
Cc1cc(O)nc2ccc(NC(=O)c3cc(C(C)O)ncc3N3CCCC3)cc12 (stereo not shown) [Compound-43]	79	> 6.70	2.4	32.9	–	6.40	–
Cc1cc(O)nc2c(C)cc(NC(=O)c3cc(S(=O)(=O)N(C)C)ccc3N3CCCC3)cc12 [Compound-107, 5-(dimethylsulfamoyl)-N-(2-hydroxy-4,8-dimethyl-6-quinolyl)-2-pyrrolidin-1-yl-benzamide]	28	> 6.70	3.6	7.8	6.15	–	–
Cc1cc(O)nc2ccc(NC(=O)c3cccnc3N3CCOCC3)cc12 [Compound-128, N-(2-hydroxy-4-methyl-6-quinolyl)-2-morpholino-pyridine-3-carboxamide]	2500	> 6.70	15	166.7	–	6.52	–
Cc1cc2nc(O)cc(C)c2cc1NC(=O)c1cc(S(=O)(=O)N(C)C)ccc1N1CCOCC1 [Compound-99, 5-(dimethylsulfamoyl)-N-(2-hydroxy-4,7-dimethyl-6-quinolyl)-2-morpholino-benzamide]	5600	> 6.70	12	466.7	–	6.40	–
Cc1cc(O)nc2ccc(NC(=O)c3cc(S(=O)(=O)N(C)C)ccc3N3CCCC3)cc12 [Compound-72, 5-(dimethylsulfamoyl)-N-(2-hydroxy-4-methyl-6-quinolyl)-2-pyrrolidin-1-yl-benzamide]	–	> 6.70	–	–	–	–	–
Cc1cc2nc(O)cc(C)c2cc1NC(=O)c1cc(-c2cnn(C)c2)cnc1N1CCOCC1 [Compound-171, N-(2-hydroxy-4,7-dimethylquinolin-6-yl)-5-(1-methyl-1H-pyrazol-4-yl)-2-morpholinonicotinamide]	–	> 6.70	–	–	–	–	–
Cc1cc2nc(O)cc(C)c2cc1NC(=O)c1cccnc1N1CCC(F)C1 (stereo not shown) [Compound-126, 2-(3-fluoropyrrolidin-1-yl)-N-(2-hydroxy-4,7-dimethyl-6-quinolyl)pyridine-3-carboxamide]	–	6.00 to 6.30	–	–	–	–	–
CN(C)S(=O)(=O)c1ccc(N2CCOCC2)c(C(=O)Nc2ccc3[nH]c(=O)cc(C(F)(F)F)c3c2)c1 [Compound-79, 5-(dimethylsulfamoyl)-2-morpholino-N-[2-oxo-4-(trifluoromethyl)-1H-quinolin-6-yl]benzamide]	–	5.00 to 6.00	–	–	–	–	–
Cc1cc(O)nc2ccc(NC(=O)c3cc(CN4CCN(C)CC4)ccc3N3CCCC3)cc12 [compound 1, N-(2-hydroxy-4-methylquinolin-6-yl)-5-((4-methylpiperazin-1-yl)methyl)-2-(pyrrolidin-1-yl)benzamide]	330	> 6.70	13	25.4	6.22	6.52	–
Cc1noc(C)c1-c1cnc(N2CCOCC2)c(C(=O)Nc2ccc3nc(O)cc(C)c3c2)c1 [Compound-177, 5-(3,5-dimethylisoxazol-4-yl)-N-(2-hydroxy-4-methylquinolin-6-yl)-2-morpholinonicotinamide]	–	> 6.70	–	–	–	–	–
Cc1cc(O)nc2ccc(NC(=O)c3cc(C(C)O)ncc3N3CCC(F)C3)cc12 (stereo not shown) [Compound-210, 5-(3-fluoropyrrolidin-1-yl)-N-(2-hydroxy-4-methylquinolin-6-yl)-2-(1-hydroxyethyl) isonicotinamide]	–	> 6.70	–	–	–	–	–
Cc1cc(O)nc2ccc(NC(=O)c3cc(S(=O)(=O)N4CCCCC4)ccc3N3CCOCC3)cc12 [Compound-67, N-(2-hydroxy-4-methyl-6-quinolyl)-2-morpholino-5-(1-piperidylsulfonyl)benzamide]	1180	> 6.70	6.2	190.9	5.92	–	–
Cc1cc(O)nc2ccc(NC(=O)c3cc(S(=O)(=O)N(C)C)cnc3N3CCC(F)C3)cc12 (stereo not shown) [Compound-199, 5-(N,N-dimethylsulfamoyl)-2-(3-fluoropyrrolidin-1-yl)-N-(2-hydroxy-4-methylquinolin-6-yl)nicotinamide]	–	> 6.70	–	–	–	–	–

Now from value to compound:

Kd [1] [nM]	pIC50 (BRD4 protein; List of Classification)	Kd [2] [nM]	BromoScan BRD4_2/1 [2]	pIC50 (MV-4-11 tumor cells)	pIC50 (IL-12p40)	pIC50 (BRD4 protein; [3])	Structure (SMILES)
–	–	–	–	–	–	> 6.70	Cc1cc(O)nc2ccc(NC(=O)c3cc(CN4CC(O)C4)ccc3N3CCCC3)cc12 [S89, 5-[(3-hydroxyazetidin-1-yl)methyl]-N-(2-hydroxy-4-methyl-6-quinolyl)-2-pyrrolidin-1-yl-benzamide]
–	–	–	–	–	–	< 5.00	Cc1cc(O)nc2ccc(NC(=O)c3cc(CN4CCOCC4)cnc3N3CCC(CO)C3)cc12 (stereo not shown) [S118, 2-[3-(hydroxymethyl)pyrrolidin-1-yl]-N-(2-hydroxy-4-methyl-6-quinolyl)-5-(morpholinomethyl)pyridine-3-carboxamide]
–	–	–	–	–	–	> 6.70	Cc1cc(O)nc2ccc(NC(=O)c3cc(S(=O)(=O)N(C)C)ccc3N3CCC(F)C3)cc12 (stereo not shown) [S42, 5-(dimethylsulfamoyl)-2-(3-fluoropyrrolidin-1-yl)-N-(2-hydroxy-4-methyl-6-quinolyl)benzamide]
–	–	–	–	–	–	5.00 to 6.00	NS(=O)(=O)c1ccc(N2CCOCC2)c(C(=O)Nc2ccc3[nH]c(=O)cc(C(F)(F)F)c3c2)c1 [S32, 2-morpholino-N-[2-oxo-4-(trifluoromethyl)-1H-quinolin-6-yl]-5-sulfamoyl-benzamide]
–	–	–	–	–	–	6.00 to 6.30	Cc1cc(O)nc2ccc(NC(=O)c3cc(S(=O)(=O)N(C)C)ccc3N3CCC(CC(C)C)C3)cc12 (stereo not shown) [S46, 5-(dimethylsulfamoyl)-N-(2-hydroxy-4-methyl-6-quinolyl)-2-(3-isobutylpyrrolidin-1-yl)benzamide]
–	–	–	–	–	–	< 5.00	CN1C(=O)CCc2cc(NC(=O)c3cc([N+](=O)[O-])ccc3N3CCOCC3)ccc21 [S9, N-(1-methyl-2-oxo-3,4-dihydroquinolin-6-yl)-2-morpholino-5-nitro-benzamide]
